Reference: US20110251126A1, “INTESTINAL TREATMENT” (priority 2008, published 2011)
Ends that are not written are not given here.

Assays:
[1] = system: small intestinal crypts; assay: Surviving small intestinal crypts after 13Gy total body X-irradiation; type: in vivo, mice; conditions: analyzed four days following irradiation
Procedure: Twenty four 8-10 week old C57/B6 male mice randomized into three groups of each eight animals. Animals received PP[2-36] (0.1 mg/kg) s.c. twice daily for three days either prior or post radiation. Controls received vehicle both prior and post radiation.
Group 1 (pretreatment): PP[2-36] (0.1 mg/kg) twice daily on day −3, −2, −1; radiation on day 0; vehicle on day 0, +1, +2, +3. Group 2 (post treatment): Vehicle twice daily on day −3, −2, −1; radiation on day 0; PP[2-36] (0.1 mg/kg twice daily on day 0, +1, +2, +3. Group 3 (control): Vehicle twice daily on day −3, −2, −1; radiation on day 0; vehicle twice daily on day 0, +1, +2, +3. All animals were irradiated (day 0) to a single dose of 13Gy total body X-irradiation. Irradiation was performed using a Pantak HF320 X-ray set (Agfa NDT Ltd, Reading, UK). The machine was operated at 300 kV, 10 mA. The X-ray tube was fitted with additional filtration to give a radiation quality of 2.3 mm Cu half-value layer (HVL). Mice were restrained in a jig, positioned at a distance of 700 mm from the focus of the X-ray tube. Irradiation was delivered at a dose rate of 75.5 cGy/min. […] For each animal ten intestinal circumferences were analyzed—a circumference is equivalent to a given length of intestine and therefore a convenient baseline unit of length. The number of surviving crypts per circumference was scored and the average per group determined. […]

[2] = system: small intestinal crypt cells; assay: Intestinal crypt cell proliferation (BrdU incorporation, cell positional scoring); type: in vivo, mice; conditions: 12 hours after dose
Procedure: 3 Groups of 8 male 8-10 weeks old C57/B6 mice were treated with group 1: Vehicle, group 2:PP(2-36) 0,1 mg/kg single injection s.c., group 3: PP(2-36) 1,0 mg/kg single injection s.c. Animals were euthanized 12 hours following the single injection of either dose. Vehicle was used as control. Prior to euthanasia all animals were given BrdU (Bromodeoxyuridine) i.p.—a marker for cell proliferation. The small intestine and colon were then removed and fixed in Carnoy's solution. From the Carnoy's fixed small intestinal material, paraffin blocks were generated and sectioned. Slides were immunolabelled to reveal the BrdU incorporation and analyzed on a cell positional basis (i.e. location of the individual cell in the hierarchy of cells in the crypt) to identify any induced proliferative changes (BrdU incorporation and mitotic counts). Fifty half crypts per mouse were scored on a cell positional basis, generating 400 frequency scores per group of 8 animals from which the means were generated and effects analyzed.

hPP2-36 (PLEPVYPGDNATPEQMAQYAADLRRYINMLTRPRY-NH2; listed as Homo sapiens) [PP[2-36]]
increase in number of surviving crypts compared to vehicle control ([1]; post treatment 0.1 mg/kg s.c. twice daily for four days post irradiation, non-significant p>0.05): 47% | increase in number of surviving intestine crypts compared to vehicle control ([1]; pretreatment 0.1 mg/kg s.c. twice daily for three days prior irradiation, p<0.05): two | level of proliferation in the small intestinal crypts ([2]; 0,1 mg/kg single injection s.c.): increased proliferation at cell positions 6-13 | level of proliferation in the small intestinal crypts ([2]; 1 mg/kg single injection s.c.): stimulation was evident throughout the proliferative zone
